Assays:
FIMMI = assay: In-water applied weed control, transplanted paddy rice, greenhouse (Example II); assay type: in vivo, Fimbristylis miliacea (L.) Vahl; settings: 35 gai/ha
Description: (§1) Evaluation of in-Water Applied Herbicidal Mixtures for Weed Control in Transplanted Paddy Rice
(§2) Weed seeds or nutlets of the desired test plant species were planted in puddled soil (mud) prepared by mixing a shredded, non-sterilized mineral soil (50.5 percent silt, 25.5 percent clay, and 24 percent sand, with a pH of about 7.6 and an organic matter content of about 2.9 percent) and water at a 1:1 volumetric ratio. The prepared mud was dispensed in 365 mL aliquots into 16-ounce (oz.) non-perforated plastic pots with a surface area of 86.59 square centimeters (cm^2) leaving a headspace of 3 centimeters (cm) in each pot. Mud was allowed to dry overnight prior to planting or transplanting. Rice seeds were planted in Sun Gro MetroMix® 306 planting mixture, which typically has a pH of 6.0 to 6.8 and an organic matter content of about 30 percent, in plastic plug trays. Seedlings at the second or third leaf stage of growth were transplanted into 840 mL of mud contained in 32-oz. non-perforated plastic pots with a surface area of 86.59 cm^2 4 days prior to herbicide application. The paddy was created by filling the headspace of the pots with 2.5 to 3 cm of water. When required to ensure good germination and healthy plants, a fungicide treatment and/or other chemical or physical treatment was applied. The plants were grown for 4-22 days in a greenhouse with an approximate 14 h photoperiod which was maintained at about 29′C during the day and 26° C. during the night. Nutrients were added as Osmocote® (19:6:12, N:P:K+ minor nutrients) at 2 g per 16-oz. pot and 4 g per 32-oz. pot. Water was added on a regular basis to maintain the paddy flood, and supplemental lighting was provided with overhead metal halide 1000-Watt lamps as necessary. The plants were employed for testing when they reached the first through fourth true leaf stage.
(§3) Treatments consisted of the acid or esters of 4-amino-3-chloro-5-fluoro-6-(4-chloro-2-fluoro-3-methoxy-phenyl)pyridine-2-carboxylic acid (compound A) each formulated as an SC (suspension concentrate) and various herbicidal components alone and in combination. Forms of compound A were applied on an acid equivalent basis.
(§4) Other herbicidal components were applied on an active ingredient basis and included 4-hydroxyphenyl pyruvate dioxygenase (HPPD)-inhibiting herbicides mesotrione formulated as Callisto®, sulcotrione formulated as Mikado®, pyrazolynate formulated as Sunbird® 10% GR, and benzobicyclon formulated as Benzobicyclon 3.5% or technical material.
(§5) Treatment requirements for each compound or herbicidal component were calculated based upon the rates being tested, the concentration of active ingredient or acid equivalent in the formulation, an application volume of 2 mL per component per pot, and an application area of 86.59 cm^2 per pot.
(§6) For formulated compounds, a measured amount was placed in an individual 100 or 200 mL glass vial and was dissolved in a volume of 1.25% (v/v) Agri-Dex® crop oil concentrate to obtain application solutions.
(§7) For technical grade compounds, a weighed amount was placed in an individual 100 to 200 mL glass vial and was dissolved in a volume of acetone to obtain concentrated stock solutions. […] The concentrated stock solutions obtained were diluted with an equivalent volume of an aqueous mixture containing 2.5% (v/v) crop oil concentrate so that the final application solutions contained 1.25% (v/v) crop oil concentrate.
(§8) Applications were made by injecting with a pipetter appropriate amounts of the application solutions, individually and sequentially, into the aqueous layer of the paddy. Control plants were treated in the same manner with the solvent blank. Applications were made so that all treated plant material received the same concentrations of acetone and crop oil concentrate.
(§9) The treated plants and control plants were placed in a greenhouse as described above and water was added as needed to maintain a paddy flood. […]

BRAPP = assay: Post-emergence foliar-applied weed control, greenhouse (Example I); assay type: in vivo
Description: (§10) Evaluation of Post-emergence Foliar-Applied Herbicidal Mixtures for Weed Control in Direct Seeded Rice
(§11) Seeds or nutlets of the desired test plant species were planted in a soil matrix prepared by mixing a loam or sandy loam soil (e.g., 28.6 percent silt, 18.8 percent clay, and 52.6 percent sand, with a pH of about 5.8 and an organic matter content of about 1.8 percent) and calcareous grit in an 80 to 20 ratio. The soil matrix was contained in plastic pots with a volume of 1 quart and a surface area of 83.6 square centimeters (cm^2). When required to ensure good germination and healthy plants, a fungicide treatment and/or other chemical or physical treatment was applied. The plants were grown for 8-22 days in a greenhouse with an approximate 14 h photoperiod which was maintained at about 29° C. during the day and 26° C. during the night. Nutrients (Peters Excel® 15-5-15 5-Ca 2-Mg and iron chelate) were applied in the irrigation solution as needed and water was added on a regular basis. Supplemental lighting was provided with overhead metal halide 1000-Watt lamps as necessary. The plants were employed for testing when they reached the first through fourth true leaf stage.
as §3, with “(Compound A),” for “(compound A)”, “concentrate),” for “concentrate)”, “Compound” for “compound”
as §4, with “3.5%.” for “3.5% or technical material.”
(§12) Treatment requirements were calculated based upon the rates being tested, the concentration of active ingredient or acid equivalent in the formulation, and a 12 mL application volume at a rate of 187 L/ha.
(§13) For treatments comprised of formulated compounds, measured amounts of compounds were placed individually in 25 mL glass vials and diluted in a volume of 1.25% (v/v) Agri-Dex® crop oil concentrated to obtain 12× stock solutions. […] Application solutions were prepared by adding an appropriate amount of each stock solution (e.g., 1 mL) and diluted to the appropriate final concentrations with the addition of 10 mL of an aqueous mixture of 1.25% (v/v) crop oil concentrate so that the final spray solutions contained 1.25+/−0.05% (v/v) crop oil concentrate.
(§14) For treatments comprised of formulated and technical compounds, weighed amounts of the technical materials were placed individually in 25 mL glass vials and dissolved in a volume of 97:3 v/v acetone/DMSO to obtain 12× stock solutions, and measured amounts of the formulated compounds were placed individually in 25 mL glass vials and diluted in a volume of 1.5% (v/v) crop oil concentrate or water to obtain 12× stock solutions. […] Application solutions were prepared by adding an appropriate amount of each stock solution (e.g., 1 mL) and diluted to the appropriate final concentrations with the addition of an appropriate amount of an aqueous mixture of 1.5% (v/v) crop oil concentrate so that the final spray solutions contained 1.25% (v/v) crop oil concentrate. As required, additional water and/or 97:3 v/v acetone/DMSO was added to individual application solutions so that the final acetone and DMSO concentrations of the application solutions being compared were 8.1% and 0.25%, respectively.
(§15) All stock solutions and applications solutions were visually inspected for compound compatibility prior to application. Spray solutions were applied to the plant material with an overhead Mandel track sprayer equipped with a 8002E nozzles calibrated to deliver 187 L/ha over an application area of 0.503 m^2 at a spray height of 18 to 20 inches (46 to 50 cm) above average plant canopy height. […]

DIGSA = assay: as above; assay type: in vivo, Digitaria sanguinalis (L.) Scop.; settings: 140 gaiha
Description: as §10, §11
as §3, with “(Compound A),” for “(compound A)”, “concentrate),” for “concentrate)”, “Compound” for “compound”
as §4, with “3.5%.” for “3.5% or technical material.”
as §12, §13, §14, §15

SCPMA = assay: In-water applied weed control, transplanted paddy rice, greenhouse (Example II); assay type: in vivo; settings: 35 gai/ha
Description: as §1, §2, §3, §4, §5, §6, §7, §8, §9

ECHCG [1] = assay: as above; assay type: in vivo, Echinochloa crusgalli (L.) Beauv.
Description: as §1, §2, §3, §4, §5, §6, §7, §8, §9

ECHOR = assay: as above; assay type: in vivo, Echinochloa oryzoides (Ard.) Fritsch
Description: as §1, §2, §3, §4, §5, §6, §7, §8, §9

CYPIR = assay: Post-emergence foliar-applied weed control, greenhouse (Example I); assay type: in vivo, Cyperus iria L.
Description: as §10, §11
as §3, with “(Compound A),” for “(compound A)”, “concentrate),” for “concentrate)”, “Compound” for “compound”
as §4, with “3.5%.” for “3.5% or technical material.”
as §12, §13, §14, §15

SCPJU = assay: as above; assay type: in vivo, Schoenoplectus juncoides (Roxb.) Palla
Description: as §10, §11
as §3, with “(Compound A),” for “(compound A)”, “concentrate),” for “concentrate)”, “Compound” for “compound”
as §4, with “3.5%.” for “3.5% or technical material.”
as §12, §13, §14, §15

IPOHE = assay: as above; assay type: in vivo, Ipomoea hederacea Jacq.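 Further: visual score 0 no injury to 100 complete kill versus untreated plants.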
Description: as §10, §11
as §3, with “(Compound A),” for “(compound A)”, “concentrate),” for “concentrate)”, “Compound” for “compound”
as §4, with “3.5%.” for “3.5% or technical material.”
as §12, §13, §14, §15

ECHCO = assay: as above; assay type: in vivo, Echinochloa colona (L.) Link
Description: as §10, §11
as §3, with “(Compound A),” for “(compound A)”, “concentrate),” for “concentrate)”, “Compound” for “compound”
as §4, with “3.5%.” for “3.5% or technical material.”
as §12, §13, §14, §15

ECHCG [2] = assay: as above; assay type: in vivo, Echinochloa crusgalli (L.) Beauv.
Description: as §10, §11
as §3, with “(Compound A),” for “(compound A)”, “concentrate),” for “concentrate)”, “Compound” for “compound”
as §4, with “3.5%.” for “3.5% or technical material.”
as §12, §13, §14, §15
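Wherever Visual Weed Control (%) - 20 DAA ECHCG Obs is given: visual score 0 no injury to 100 complete kill versus untreated plants.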

CS(=O)(=O)c1ccc(C(=O)C2C(=O)CCCC2=O)c([N+](=O)[O-])c1 [Mesotrione, 2-[4-(methylsulfonyl)-2-nitrobenzoyl]-1,3-cyclohexanedione, reference compound]
Visual Weed Control (%) - 21 DAA FIMMI Obs (FIMMI): 78%
Visual Weed Control (%) - 20 DAA BRAPP Obs (BRAPP; 17.5 gai/ha): 0%
Visual Weed Control (%) - 20 DAA BRAPP Obs (BRAPP; 35 gai/ha): 0%
Visual Weed Control (%) - 20 DAA DIGSA Obs (DIGSA): 58%
Visual Weed Control (%) - 21 DAA SCPMA Obs (SCPMA): 80%
Visual Weed Control (%) - 20 DAA ECHCG Obs (ECHCG [1]; 35 gai/ha): 10%
Visual Weed Control (%) - 20 DAA ECHCG Obs (ECHCG [1]; 70 gai/ha): 25%
Visual Weed Control (%) - 20 DAA ECHOR Obs (ECHOR; 140 gaiha): 80%
Visual Weed Control (%) -20 DAA ECHOR Obs (ECHOR; 140 gaiha): 80%
Visual Weed Control (%) - 20 DAA CYPIR Obs (CYPIR; 17.5 gai/ha): 0%
Visual Weed Control (%) - 20 DAA CYPIR Obs (CYPIR; 35 gai/ha): 50%
Visual Weed Control (%) - 20 DAA SCPJU Obs (SCPJU; 17.5 gai/ha): 50%
Visual Weed Control (%) - 20 DAA SCPJU Obs (SCPJU; 35 gai/ha): 80%
Visual Weed Control (%) - 20 DAA IPOHE Obs (IPOHE; 35 gai/ha): 25%
Visual Weed Control (%) - 20 DAA IPOHE Obs (IPOHE; 70 gai/ha): 50%
Visual Weed Control (%) - 20 DAA ECHCO Obs (ECHCO; 17.5 gai/ha): 0%
Visual Weed Control (%) - 20 DAA ECHCO Obs (ECHCO; 35 gai/ha): 0%
Visual Weed Control (%) - 20 DAA ECHCO Obs (ECHCO; 70 gai/ha): 0%

CCCCOC(=O)c1nc(-c2ccc(Cl)c(OC)c2F)c(F)c(N)c1Cl [Compound A n-Butyl Ester]
Visual Weed Control (%) -20 DAA ECHOR Obs (ECHOR; 35 gae/ha): 35%
Visual Weed Control (%) -20 DAA ECHOR Obs (ECHOR; 70 gae/ha): 40%
Visual Weed Control (%) - 21 DAA ECHCG Obs (ECHCG [2]; 17.5 gae/ha): 78%
Visual Weed Control (%) - 21 DAA ECHCG Obs (ECHCG [2]; 35 gae/ha): 93%
